According to PMC9136578 (Acta Pharmaceutica Sinica. B, 2021):
Numbered stars: 1 amine (or outer) side, 2 acyl side, 3 side chain; on linkers, the order of the positions; unused ones are H or OH. Square brackets hold non-standard residues; d marks the D form. Side chains are listed from the residue outwards. Peptide text beside a SMILES is read from it. * marks the point of attachment. C18 diacid = O=C(O)CCCCCCCCCCCCCCCCC(=O)*; γGlu = O=C(O)[C@H](CCC(=O)[*:2])N[*:1]; PEG2 = NCCOCCOCCC(=O)O

Each compound was assayed against human GLP-1R (Homo sapiens, UniProt P43220) (assay: CRE-driven luciferase reporter).
Sequence of human GLP-1R (P43220 24-463): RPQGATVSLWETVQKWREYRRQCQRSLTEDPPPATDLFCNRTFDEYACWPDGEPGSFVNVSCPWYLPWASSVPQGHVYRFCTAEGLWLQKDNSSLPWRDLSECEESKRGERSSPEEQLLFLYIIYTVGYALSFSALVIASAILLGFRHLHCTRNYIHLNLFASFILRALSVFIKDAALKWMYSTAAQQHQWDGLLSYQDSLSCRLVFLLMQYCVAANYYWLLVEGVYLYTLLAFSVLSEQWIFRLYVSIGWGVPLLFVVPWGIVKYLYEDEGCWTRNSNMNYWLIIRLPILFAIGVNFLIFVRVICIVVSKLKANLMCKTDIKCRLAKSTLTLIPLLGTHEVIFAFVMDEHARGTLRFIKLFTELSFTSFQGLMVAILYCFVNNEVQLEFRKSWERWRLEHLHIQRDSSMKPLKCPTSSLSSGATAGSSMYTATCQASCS
Assay type: cell-based

Point of comparison: CC(C)C[C@H](NC(=O)[C@H](CC(C)C)NC(=O)[C@H](Cc1c[nH]c2ccccc12)NC(=O)[C@H](CCC(=O)O)NC(=O)[C@@H](NC(=O)[C@H](Cc1ccccc1)NC(=O)[C@H](CC(=O)O)NC(=O)[C@H](Cc1c[nH]cn1)NC(=O)[C@H](C)NC(=O)[C@H](C)NC(=O)[C@H](CCCCNC(=O)CCOCCOCCNC(=O)CCOCCOCCNC(=O)CC[C@H](NC(=O)CCCCCCCCCCCCCCCCC(=O)O)C(=O)O)NC(=O)[C@H](CO)NC(=O)[C@H](CC(=O)O)NC(=O)[C@H](CC(C)C)NC(=O)[C@H](Cc1ccc(O)cc1)NC(=O)[C@H](CCCCN)NC(=O)[C@H](CO)NC(=O)[C@H](Cc1ccc(O)cc1)NC(=O)[C@H](CC(=O)O)NC(=O)[C@H](CO)NC(=O)[C@@H](NC(=O)[C@H](Cc1ccccc1)NC(=O)[C@@H](NC(=O)CNC(=O)[C@H](CCC(N)=O)NC(=O)[C@@H](CO)NC(=O)[C@@H](N)Cc1c[nH]cn1)[C@@H](C)O)[C@@H](C)O)C(C)C)C(=O)N[C@@H](CC(N)=O)C(=O)NCC(=O)NCC(=O)N1CCC[C@H]1C(=O)N[C@@H](CO)C(=O)N[C@@H](CO)C(=O)NCC(=O)N[C@@H](C)C(=O)N1CCC[C@H]1C(=O)N1CCC[C@H]1C(=O)N1CCC[C@H]1C(=O)N[C@@H](CO)C(N)=O [TA004] (H-H[dS]QGTFTSDYSKYLDSK([PEG2-PEG2-γGlu-C18 diacid])AAHDFVEWLLNGGPSSGAPPPS-NH2), EC50 0.19 nM. Against it:
- CCCCCCCCCCCCCCCCCC(=O)NCCOCCOCCC(=O)NCCOCCOCCC(=O)NCCCC[C@H](NC(=O)[C@H](CC(=O)O)NC(=O)[C@H](CO)NC(=O)[C@@H](NC(=O)[C@H](Cc1ccccc1)NC(=O)[C@@H](NC(=O)CNC(=O)[C@H](CCC(N)=O)NC(=O)[C@@H](CO)NC(=O)[C@@H](N)Cc1c[nH]cn1)[C@@H](C)O)[C@@H](C)O)C(=O)N[C@@H](CO)C(=O)N[C@@H](CCCCN)C(=O)N[C@@H](Cc1ccc(OS(=O)(=O)F)cc1)C(=O)N[C@@H](CC(C)C)C(=O)N[C@@H](CC(=O)O)C(=O)NC(C)(C)C(=O)N[C@@H](CCCNC(=N)N)C(=O)N[C@@H](CCCNC(=N)N)C(=O)N[C@@H](C)C(=O)N[C@@H](CCC(N)=O)C(=O)N[C@@H](CC(=O)O)C(=O)N[C@@H](Cc1ccccc1)C(=O)N[C@H](C(=O)N[C@@H](CCC(N)=O)C(=O)N[C@@H](Cc1c[nH]c2ccccc12)C(=O)N[C@@H](CC(C)C)C(=O)N[C@@H](CCSC)C(=O)N[C@@H](CC(N)=O)C(=O)N[C@H](C(=O)NCC(=O)NCC(=O)N1CCC[C@H]1C(=O)N[C@@H](CO)C(=O)N[C@@H](CO)C(=O)NCC(=O)N[C@@H](C)C(=O)N1CCC[C@H]1C(=O)N1CCC[C@H]1C(=O)N1CCC[C@H]1C(=O)N[C@@H](CO)C(N)=O)[C@@H](C)O)C(C)C [TA006] — 13-fold higher, 2.5 nM
- CC(C)C[C@H](NC(=O)[C@H](CC(C)C)NC(=O)[C@H](Cc1c[nH]c2ccccc12)NC(=O)[C@H](CCC(=O)O)NC(=O)[C@@H](NC(=O)[C@H](Cc1ccccc1)NC(=O)[C@H](CC(=O)O)NC(=O)[C@H](Cc1c[nH]cn1)NC(=O)[C@H](C)NC(=O)[C@H](C)NC(=O)[C@H](CCCCNC(=O)CCOCCOCCNC(=O)CCOCCOCCNC(=O)CC[C@H](NC(=O)CCCCCCCCCCCCCCCCC(=O)O)C(=O)O)NC(=O)[C@H](CO)NC(=O)[C@H](CC(=O)O)NC(=O)[C@H](CC(C)C)NC(=O)[C@H](Cc1ccc(O)cc1)NC(=O)[C@H](CCCCN)NC(=O)[C@H](CO)NC(=O)[C@H](Cc1ccc(O)cc1)NC(=O)[C@H](CC(=O)O)NC(=O)[C@H](CO)NC(=O)[C@@H](NC(=O)[C@H](Cc1ccccc1)NC(=O)[C@@H](NC(=O)CNC(=O)[C@H](CCC(N)=O)NC(=O)[C@@H](CO)NC(=O)[C@@H](N)Cc1c[nH]cn1)[C@@H](C)O)[C@@H](C)O)C(C)C)C(=O)N[C@@H](CCCNC(=N)N)C(=O)N[C@@H](C)C(N)=O [TA002] (H-H[dS]QGTFTSDYSKYLDSK([PEG2-PEG2-γGlu-C18 diacid])AAHDFVEWLLRA-NH2) — 1.7-fold higher, 0.32 nM
